Experimental data taken from patent US12325701B2, “YKL-40 inhibitors and their therapeutic” (Molecure S.A., priority 2022, dated 2025).
Counter-ions that a name gives are not always drawn. Like-named read-outs stand apart in the source and are kept apart here.

Molecular target: YKL-40 (YKL-40-histag, chitin binding site) (Homo sapiens (Human), UniProt P36222)
Assay: YKL-40:4 assay, competitive chitin binding site AlphaScreen
[1] = competition with biotinylated compound 4, 20 nM, YKL-40-histag 2.5 nM, read-out: YKL-40:4, IC50/Kd (IC50 range)

YKL-40 (YKL-40-histag, chitin binding site), sequence (P36222 22-383): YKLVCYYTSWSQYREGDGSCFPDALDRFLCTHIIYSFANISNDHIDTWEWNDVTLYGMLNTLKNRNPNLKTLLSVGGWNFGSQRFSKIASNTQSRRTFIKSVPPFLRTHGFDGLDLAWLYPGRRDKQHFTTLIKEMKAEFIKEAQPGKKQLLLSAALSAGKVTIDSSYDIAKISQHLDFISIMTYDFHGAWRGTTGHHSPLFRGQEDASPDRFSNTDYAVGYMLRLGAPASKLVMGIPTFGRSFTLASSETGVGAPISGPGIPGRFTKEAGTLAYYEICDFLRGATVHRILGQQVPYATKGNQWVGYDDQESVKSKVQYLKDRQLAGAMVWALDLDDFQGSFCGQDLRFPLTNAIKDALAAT

Structure (SMILES)	IC50	IC50 [1]
COC(=O)c1cccnc1N1CCC(N2C[C@H](C)OC[C@@H]2Cc2ccc(Cl)cc2)CC1 [Compound 117, methyl 2-(4-((2S,5S)-5-(4-chlorobenzyl)-2-methylmorpholino)piperidin-1-yl)nicotinate 2,2,2-trifluoroacetate]	> 10 µM	
C[C@H]1CN(C2CCN(c3cc(C(N)=O)ccn3)CC2)[C@@H](Cc2ccc(Cl)cc2)CO1 [Compound 132, 2-(4-((2S,5S)-5-(4-chlorobenzyl)-2-methylmorpholino)piperidin-1-yl)isonicotinamide 2,2,2-trifluoroacetate]	> 10 µM	
COC(=O)c1ccnc(N2CCC(N3C[C@H](C)OC[C@@H]3Cc3ccc(Cl)cc3)CC2)c1F [Compound 122, methyl 2-(4-((2S,5S)-5-(4-chlorobenzyl)-2-methylmorpholino)piperidin-1-yl)-3-fluoroisonicotinate]		> 10 µM
C[C@H]1CN(C2CCN(c3noc(C(F)(F)F)n3)CC2)[C@@H](Cc2ccc(Cl)cc2)CO1 [Compound 164, (2S,5S)-5-(4-chlorobenzyl)-2-methyl-4-(1-(5-(trifluoromethyl)-1,2,4-oxadiazol-3-yl)piperidin-4-yl)morpholine 2,2,2-trifluoroacetate]	> 10 µM	
Cc1nsc(N2CCC(N3C[C@H](C)OC[C@@H]3Cc3ccc(Cl)cc3)CC2)n1 [Compound 180, (2S,5S)-5-(4-chlorobenzyl)-2-methyl-4-(1-(3-methyl-1,2,4-thiadiazol-5-yl)piperidin-4-yl)morpholine 2,2,2-trifluoroacetate]	> 10 µM	
Cc1nnc(N2CCC(N3C[C@H](C)OC[C@@H]3Cc3ccc(Cl)cc3)CC2)s1 [Compound 182, (2S,5S)-5-(4-chlorobenzyl)-2-methyl-4-(1-(5-methyl-1,3,4-thiadiazol-2-yl)piperidin-4-yl)morpholine 2,2,2-trifluoroacetate]	> 10 µM	
Cc1noc(N2CCC(N3C[C@H](C)OC[C@@H]3Cc3ccc(Cl)cc3)CC2)n1 [Compound 188, (2S,5S)-5-(4-chlorobenzyl)-2-methyl-4-(1-(3-methyl-1,2,4-oxadiazol-5-yl)piperidin-4-yl)morpholine 2,2,2-trifluoroacetate]	> 10 µM	
CC(C)C1OC[C@H](Cc2ccc(Cl)cc2)N1C1CCN(c2ccccn2)CC1 (stereo partly drawn) [Compound 150, (4S)-4-(4-chlorobenzyl)-2-isopropyl-3-(1-(pyridin-2-yl)piperidin-4-yl)oxazolidine hydrochloride]		> 10 µM
CN1C[C@H](Cc2ccc(Cl)cc2)N(C2CCN(c3cc(Cl)ccn3)CC2)C[C@@H]1COc1ccc2ccccc2c1 [Compound 84, (2S,5R)-2-(4-chlorobenzyl)-1-(1-(4-chloropyridin-2-yl)piperidin-4-yl)-4-methyl-5-((naphthalen-2-yloxy)methyl)piperazine 2,2,2-trifluoroacetate]	> 10 µM	
O=C1NCCN(C2CCN(c3ccccn3)CC2)[C@H]1Cc1ccc(Cl)cc1 [Compound 149, (S)-3-(4-chlorobenzyl)-4-(1-(pyridin-2-yl)piperidin-4-yl)piperazin-2-one 2,2,2-trifluoroacetate]	> 10 µM	
C[C@H]1CN(C2CCN(c3ncnc(N(C)C)n3)CC2)[C@@H](Cc2ccc(Cl)cc2)CO1 [Compound 175, 4-(4-((2S,5S)-5-(4-chlorobenzyl)-2-methylmorpholino)piperidin-1-yl)-N,N-dimethyl-1,3,5-triazin-2-amine 2,2,2-trifluoroacetate]	> 10 µM	
C[C@H]1CN(C2CCN(c3nnn[nH]3)CC2)[C@@H](Cc2ccc(Cl)cc2)CO1 [Compound 166, (2S,5S)-4-(1-(1H-tetrazol-5-yl)piperidin-4-yl)-5-(4-chlorobenzyl)-2-methylmorpholine 2,2,2-trifluoroacetate]	> 10 µM	
C[C@H]1CN(C2CCN(c3ncc(C(F)(F)F)o3)CC2)[C@@H](Cc2ccc(Cl)cc2)CO1 [Compound 168, (2S,5S)-5-(4-chlorobenzyl)-2-methyl-4-(1-(5-(trifluoromethyl)oxazol-2-yl)piperidin-4-yl)morpholine 2,2,2-trifluoroacetate]	> 10 µM	
C[C@H]1CN(C2CCN(c3ncnc(Cl)n3)CC2)[C@@H](Cc2ccc(Cl)cc2)CO1 [Compound 169, (2S,5S)-4-(1-(4-chloro-1,3,5-triazin-2-yl)piperidin-4-yl)-5-(4-chlorobenzyl)-2-methylmorpholine 2,2,2-trifluoroacetate]	> 10 µM	
C[C@H]1CN(C2CCN(c3ncccc3C(N)=O)CC2)[C@@H](Cc2ccc(Cl)cc2)CO1 [Compound 114, 2-(4-((2S,5S)-5-(4-chlorobenzyl)-2-methylmorpholino)piperidin-1-yl)nicotinamide 2,2,2-trifluoroacetate]	> 10 µM	

Continued, values first:

IC50	IC50 [1]	Structure (SMILES)
> 10 µM		C[C@H]1CN(C2CCN(c3ccc(C#N)cn3)CC2)[C@@H](Cc2ccc(Cl)cc2)CO1 [Example 19, 6-(4-((2S,5S)-5-(4-chlorobenzyl)-2-methylmorpholino)piperidin-1-yl)nicotinonitrile 2,2,2-trifluoroacetate]
> 10 µM		COc1cccnc1N1CCC(N2C[C@H](C)OC[C@@H]2Cc2ccc(Cl)cc2)CC1 [Compound 162, (2S,5S)-5-(4-chlorobenzyl)-4-(1-(3-methoxypyridin-2-yl)piperidin-4-yl)-2-methylmorpholine 2,2,2-trifluoroacetate]
> 10 µM		C[C@H]1CN(C2CCN(c3c(F)cccc3C#N)CC2)[C@@H](Cc2ccc(Cl)cc2)CO1 [Compound 118, 2-(4-((2S,5S)-5-(4-chlorobenzyl)-2-methylmorpholino)piperidin-1-yl)-3-fluorobenzonitrile 2,2,2-trifluoroacetate]
> 10 µM		C[C@H]1CN(C2CCN(c3cc(Cl)ccc3C#N)CC2)[C@@H](Cc2ccc(Cl)cc2)CO1 [Compound 115, 4-chloro-2-(4-((2S,5S)-5-(4-chlorobenzyl)-2-methylmorpholino)piperidin-1-yl)benzonitrile 2,2,2-trifluoroacetate]
> 10 µM		C[C@H]1CN(C2CCN(c3ncnc(C#N)n3)CC2)[C@@H](Cc2ccc(Cl)cc2)CO1 [Compound 173, 4-(4-((2S,5S)-5-(4-chlorobenzyl)-2-methylmorpholino)piperidin-1-yl)-1,3,5-triazine-2-carbonitrile 2,2,2-trifluoroacetate]
> 10 µM		C[C@H]1CN(C2CCN(c3ncccc3CO)CC2)[C@@H](Cc2ccc(Cl)cc2)CO1 [Compound 120, (2-(4-((2S,5S)-5-(4-chlorobenzyl)-2-methylmorpholino)piperidin-1-yl)pyridin-3-yl)methanol 2,2,2-trifluoroacetate]
> 10 µM		C[C@H]1CN(C2CCN(c3c(F)cccc3F)CC2)[C@@H](Cc2ccc(Cl)cc2)CO1 [Compound 123, (2S,5S)-5-(4-chlorobenzyl)-4-(1-(2,6-difluorophenyl)piperidin-4-yl)-2-methylmorpholine 2,2,2-trifluoroacetate]
	> 10 µM	Cc1cccc(N2CCC(N3C[C@H](C)OC[C@@H]3Cc3ccc(Cl)cc3)CC2)n1 [Compound 135, (2S,5S)-5-(4-chlorobenzyl)-2-methyl-4-(1-(6-methylpyridin-2-yl)piperidin-4-yl)morpholine hydrochloride]
> 10 µM		C[C@H]1CN(C2CCN(c3cc(=O)[nH]cn3)CC2)[C@@H](Cc2ccc(Cl)cc2)CO1 [Compound 167, 6-(4-((2S,5S)-5-(4-chlorobenzyl)-2-methylmorpholino)piperidin-1-yl)pyrimidin-4(3H)-one 2,2,2-trifluoroacetate]
> 10 µM		C[C@H]1CN(C2CCN(c3ncccc3O)CC2)[C@@H](Cc2ccc(Cl)cc2)CO1 [Compound 160, 2-(4-((2S,5S)-5-(4-chlorobenzyl)-2-methylmorpholino)piperidin-1-yl)pyridin-3-ol 2,2,2-trifluoroacetate]
> 10 µM		C[C@H]1CN(C2CCN(c3ccccc3F)CC2)[C@@H](Cc2ccc(Cl)cc2)CO1 [Compound 126, (2S,5S)-5-(4-chlorobenzyl)-4-(1-(2-fluorophenyl)piperidin-4-yl)-2-methylmorpholine 2,2,2-trifluoroacetate]
> 10 µM		C[C@H]1CN(C2CCN(c3ncns3)CC2)[C@@H](Cc2ccc(Cl)cc2)CO1 [Compound 179, (2S,5S)-4-(1-(1,2,4-thiadiazol-5-yl)piperidin-4-yl)-5-(4-chlorobenzyl)-2-methylmorpholine 2,2,2-trifluoroacetate]
> 10 µM		C[C@H]1CN(C2CCN(c3ncc(F)cc3F)CC2)[C@@H](Cc2ccc(Cl)cc2)CO1 [Example 25, (2S,5S)-5-(4-chlorobenzyl)-4-(1-(3,5-difluoropyridin-2-yl)piperidin-4-yl)-2-methylmorpholine 2,2,2-trifluoroacetate]
> 10 µM		C[C@H]1CN(C2CCN(c3ccnc(N)n3)CC2)[C@@H](Cc2ccc(Cl)cc2)CO1 [Compound 67, 4-(4-((2S,5S)-5-(4-chlorobenzyl)-2-methylmorpholino)piperidin-1-yl)pyrimidin-2-amine 2,2,2-trifluoroacetate]
> 10 µM		C[C@H]1CN(C2CCN(c3ncnc(O)n3)CC2)[C@@H](Cc2ccc(Cl)cc2)CO1 [Compound 170]
> 10 µM		C[C@H]1CN(C2CCN(c3ccncc3)CC2)[C@@H](Cc2ccc(Cl)cc2)CO1 [Example 28, (2S,5S)-5-(4-chlorobenzyl)-2-methyl-4-(1-(pyridin-4-yl)piperidin-4-yl)morpholine 2,2,2-trifluoroacetate]
> 10 µM		Cc1ncnc(N2CCC(N3C[C@H](C)OC[C@@H]3Cc3ccc(Cl)cc3)CC2)n1 [Compound 172, (2S,5S)-5-(4-chlorobenzyl)-2-methyl-4-(1-(4-methyl-1,3,5-triazin-2-yl)piperidin-4-yl)morpholine 2,2,2-trifluoroacetate]
> 10 µM		C[C@H]1CN(C2CCN(c3cc(C(C)(C)O)ccn3)CC2)[C@@H](Cc2ccc(Cl)cc2)CO1 [Compound 131, 2-(2-(4-((2S,5S)-5-(4-chlorobenzyl)-2-methylmorpholino)piperidin-1-yl)pyridin-4-yl)propan-2-ol 2,2,2-trifluoroacetate]
	> 10 µM	C[C@H]1CN(C2CCN(c3cnc(C(F)(F)F)cn3)CC2)[C@@H](Cc2ccc(Cl)cc2)CO1 [Compound 158, (2S,5S)-5-(4-chlorobenzyl)-2-methyl-4-(1-(5-(trifluoromethyl)pyrazin-2-yl)piperidin-4-yl)morpholine hydrochloride]
